Results from ChEMBL document CHEMBL4507276 (2021).

Tests used:
[1] = target: B2 bradykinin receptor (Homo sapiens) (UniProt P30411); test: B2/HUM Cerep selectivity data (BI); conditions: Compound concentration 20.0 uM
[2] = target: Sodium-dependent noradrenaline transporter (Homo sapiens) (UniProt P23975); test: NEUP/H Cerep selectivity data (BI); conditions: Compound concentration 20.0 uM
[3] = target: Dual specificity protein kinase CLK4 (Homo sapiens) (UniProt Q9HAZ1); test: CLK4 Invitrogen selectivity data (BI); conditions: Compound concentration 3.0 uM
Dual specificity protein kinase CLK4 (Homo sapiens), sequence (Q9HAZ1 whole entry, looked up): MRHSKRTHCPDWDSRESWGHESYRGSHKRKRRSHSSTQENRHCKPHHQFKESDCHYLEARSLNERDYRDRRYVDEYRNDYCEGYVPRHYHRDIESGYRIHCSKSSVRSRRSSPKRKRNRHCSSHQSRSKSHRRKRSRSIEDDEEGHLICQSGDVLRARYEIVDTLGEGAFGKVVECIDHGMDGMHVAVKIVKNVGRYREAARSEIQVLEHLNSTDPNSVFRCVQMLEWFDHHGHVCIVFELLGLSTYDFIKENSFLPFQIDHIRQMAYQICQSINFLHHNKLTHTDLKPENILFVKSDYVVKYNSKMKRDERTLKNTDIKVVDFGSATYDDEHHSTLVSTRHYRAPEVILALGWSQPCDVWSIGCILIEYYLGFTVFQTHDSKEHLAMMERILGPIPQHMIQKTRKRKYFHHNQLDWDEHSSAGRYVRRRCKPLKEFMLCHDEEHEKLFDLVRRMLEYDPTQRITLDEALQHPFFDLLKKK

[4] = target: G protein-coupled receptor kinase 4 (Homo sapiens) (UniProt P32298); test: GRK4 Invitrogen selectivity data (BI); conditions: Compound concentration 3.0 uM
G protein-coupled receptor kinase 4 (Homo sapiens), sequence (P32298 whole entry, looked up): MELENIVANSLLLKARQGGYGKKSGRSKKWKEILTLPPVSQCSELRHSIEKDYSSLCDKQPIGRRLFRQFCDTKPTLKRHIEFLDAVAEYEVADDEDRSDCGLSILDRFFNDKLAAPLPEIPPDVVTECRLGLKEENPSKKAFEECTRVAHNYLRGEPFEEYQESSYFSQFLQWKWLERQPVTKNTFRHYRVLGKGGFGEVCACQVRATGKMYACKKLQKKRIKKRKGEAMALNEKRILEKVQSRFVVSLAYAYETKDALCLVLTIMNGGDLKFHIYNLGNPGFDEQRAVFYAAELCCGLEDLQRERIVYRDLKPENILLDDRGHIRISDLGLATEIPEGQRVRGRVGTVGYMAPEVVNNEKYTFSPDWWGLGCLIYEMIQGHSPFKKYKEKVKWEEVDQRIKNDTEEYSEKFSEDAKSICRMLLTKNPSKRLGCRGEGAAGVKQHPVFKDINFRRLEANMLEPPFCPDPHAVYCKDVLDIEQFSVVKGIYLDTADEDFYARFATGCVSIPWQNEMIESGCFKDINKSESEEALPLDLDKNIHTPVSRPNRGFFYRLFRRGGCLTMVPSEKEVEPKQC

[5] = target: T1, Tyrosine-protein kinase JAK3 (Homo sapiens) (UniProt P52333); test: JAK3 Invitrogen selectivity data (BI); conditions: Compound concentration 3.0 uM
T1 sequence (whole entry): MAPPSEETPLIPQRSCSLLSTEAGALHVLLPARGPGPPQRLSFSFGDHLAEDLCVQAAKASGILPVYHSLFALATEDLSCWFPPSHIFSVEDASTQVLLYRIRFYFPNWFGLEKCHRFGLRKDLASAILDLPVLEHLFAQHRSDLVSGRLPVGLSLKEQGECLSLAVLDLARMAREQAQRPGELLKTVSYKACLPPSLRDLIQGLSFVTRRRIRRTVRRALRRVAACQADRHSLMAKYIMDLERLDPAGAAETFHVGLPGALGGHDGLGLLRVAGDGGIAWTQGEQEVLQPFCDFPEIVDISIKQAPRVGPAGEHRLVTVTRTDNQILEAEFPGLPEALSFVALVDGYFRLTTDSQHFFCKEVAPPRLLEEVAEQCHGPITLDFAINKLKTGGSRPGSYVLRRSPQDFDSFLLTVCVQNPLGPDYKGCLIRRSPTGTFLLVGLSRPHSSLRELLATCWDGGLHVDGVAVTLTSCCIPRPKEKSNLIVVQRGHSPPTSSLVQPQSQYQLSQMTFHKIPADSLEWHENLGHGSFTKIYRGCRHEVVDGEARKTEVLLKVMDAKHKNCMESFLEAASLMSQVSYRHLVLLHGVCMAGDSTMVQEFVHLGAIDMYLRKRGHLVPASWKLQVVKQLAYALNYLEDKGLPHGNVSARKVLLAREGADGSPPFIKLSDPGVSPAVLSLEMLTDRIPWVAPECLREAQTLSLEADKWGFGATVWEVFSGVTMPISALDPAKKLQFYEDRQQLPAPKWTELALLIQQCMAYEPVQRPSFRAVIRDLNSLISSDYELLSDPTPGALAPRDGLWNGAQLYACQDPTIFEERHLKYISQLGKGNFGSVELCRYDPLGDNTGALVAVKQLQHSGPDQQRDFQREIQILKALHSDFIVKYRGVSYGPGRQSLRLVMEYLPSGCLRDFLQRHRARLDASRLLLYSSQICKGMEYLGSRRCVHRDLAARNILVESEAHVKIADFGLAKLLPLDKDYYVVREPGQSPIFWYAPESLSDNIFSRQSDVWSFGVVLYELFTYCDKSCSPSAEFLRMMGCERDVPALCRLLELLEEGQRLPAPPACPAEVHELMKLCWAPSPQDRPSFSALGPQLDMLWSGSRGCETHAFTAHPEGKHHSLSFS

[6] = target: Tyrosine-protein kinase Lyn (Homo sapiens) (UniProt P07948); test: LYN A Invitrogen selectivity data (BI); conditions: Compound concentration 3.0 uM
Tyrosine-protein kinase Lyn (Homo sapiens), sequence (P07948 2-512 limits assumed): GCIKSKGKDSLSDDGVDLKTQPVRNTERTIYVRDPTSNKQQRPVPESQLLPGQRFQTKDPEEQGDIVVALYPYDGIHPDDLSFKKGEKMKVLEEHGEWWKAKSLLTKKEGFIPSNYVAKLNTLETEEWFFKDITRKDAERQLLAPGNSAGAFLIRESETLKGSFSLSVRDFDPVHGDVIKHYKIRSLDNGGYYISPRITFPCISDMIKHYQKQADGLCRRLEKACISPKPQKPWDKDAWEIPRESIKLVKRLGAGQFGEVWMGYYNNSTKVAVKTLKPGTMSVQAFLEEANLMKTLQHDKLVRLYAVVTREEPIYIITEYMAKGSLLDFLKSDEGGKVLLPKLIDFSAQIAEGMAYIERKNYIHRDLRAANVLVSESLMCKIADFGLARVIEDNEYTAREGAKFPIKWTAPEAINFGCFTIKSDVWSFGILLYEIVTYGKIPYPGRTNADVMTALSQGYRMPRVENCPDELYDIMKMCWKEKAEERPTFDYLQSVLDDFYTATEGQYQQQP

[7] = target: T2, Tyrosine-protein kinase Mer (Homo sapiens) (UniProt Q12866); test: MERTK Invitrogen selectivity data (BI); conditions: Compound concentration 3.0 uM
T2 sequence (whole entry): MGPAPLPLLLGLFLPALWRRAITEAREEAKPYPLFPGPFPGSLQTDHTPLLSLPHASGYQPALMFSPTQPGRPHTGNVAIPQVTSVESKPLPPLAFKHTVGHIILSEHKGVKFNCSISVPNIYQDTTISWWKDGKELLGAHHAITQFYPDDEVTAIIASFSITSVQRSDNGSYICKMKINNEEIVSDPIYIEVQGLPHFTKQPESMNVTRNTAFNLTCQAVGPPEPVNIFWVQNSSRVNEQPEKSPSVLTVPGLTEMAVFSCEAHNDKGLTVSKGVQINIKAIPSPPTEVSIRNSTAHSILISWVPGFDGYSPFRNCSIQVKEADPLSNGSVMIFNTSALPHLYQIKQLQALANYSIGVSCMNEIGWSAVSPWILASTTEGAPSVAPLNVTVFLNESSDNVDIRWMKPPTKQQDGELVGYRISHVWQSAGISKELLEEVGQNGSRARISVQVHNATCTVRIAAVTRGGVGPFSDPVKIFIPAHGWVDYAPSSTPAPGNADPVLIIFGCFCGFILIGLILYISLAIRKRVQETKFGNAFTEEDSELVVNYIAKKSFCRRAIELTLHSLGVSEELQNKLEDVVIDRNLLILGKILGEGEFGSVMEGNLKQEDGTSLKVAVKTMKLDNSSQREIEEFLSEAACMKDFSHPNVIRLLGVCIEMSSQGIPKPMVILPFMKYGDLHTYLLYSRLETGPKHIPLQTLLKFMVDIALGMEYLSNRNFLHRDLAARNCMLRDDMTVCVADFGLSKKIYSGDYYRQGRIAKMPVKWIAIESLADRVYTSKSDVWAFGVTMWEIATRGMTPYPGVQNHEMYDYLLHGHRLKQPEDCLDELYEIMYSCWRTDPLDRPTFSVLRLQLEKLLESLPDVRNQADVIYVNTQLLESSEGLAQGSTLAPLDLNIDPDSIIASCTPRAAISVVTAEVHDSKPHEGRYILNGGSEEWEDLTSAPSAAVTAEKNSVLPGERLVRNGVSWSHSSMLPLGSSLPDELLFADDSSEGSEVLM

[8] = target: Receptor-interacting serine/threonine-protein kinase 2 (Homo sapiens) (UniProt O43353); test: RIPK2 Invitrogen selectivity data (BI); conditions: Compound concentration 3.0 uM
Receptor-interacting serine/threonine-protein kinase 2 (Homo sapiens), sequence (O43353 whole entry): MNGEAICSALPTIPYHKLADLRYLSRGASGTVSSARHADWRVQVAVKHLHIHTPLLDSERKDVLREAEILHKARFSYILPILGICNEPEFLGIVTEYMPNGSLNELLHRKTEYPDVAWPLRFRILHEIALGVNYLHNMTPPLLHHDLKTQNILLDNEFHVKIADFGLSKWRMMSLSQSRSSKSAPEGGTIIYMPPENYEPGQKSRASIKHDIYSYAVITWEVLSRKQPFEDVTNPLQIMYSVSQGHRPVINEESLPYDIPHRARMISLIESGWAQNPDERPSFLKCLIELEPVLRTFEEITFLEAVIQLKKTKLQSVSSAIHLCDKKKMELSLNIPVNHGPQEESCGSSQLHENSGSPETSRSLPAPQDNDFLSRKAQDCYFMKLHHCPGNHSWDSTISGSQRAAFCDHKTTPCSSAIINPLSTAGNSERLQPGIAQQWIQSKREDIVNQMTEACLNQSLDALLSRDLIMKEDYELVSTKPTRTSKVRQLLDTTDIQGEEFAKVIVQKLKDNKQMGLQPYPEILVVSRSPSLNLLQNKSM

[9] = target: T3, Serine/threonine-protein kinase 17A (Homo sapiens) (UniProt Q9UEE5); test: STK17A Invitrogen selectivity data (BI); conditions: Compound concentration 3.0 uM
T3 sequence (whole entry): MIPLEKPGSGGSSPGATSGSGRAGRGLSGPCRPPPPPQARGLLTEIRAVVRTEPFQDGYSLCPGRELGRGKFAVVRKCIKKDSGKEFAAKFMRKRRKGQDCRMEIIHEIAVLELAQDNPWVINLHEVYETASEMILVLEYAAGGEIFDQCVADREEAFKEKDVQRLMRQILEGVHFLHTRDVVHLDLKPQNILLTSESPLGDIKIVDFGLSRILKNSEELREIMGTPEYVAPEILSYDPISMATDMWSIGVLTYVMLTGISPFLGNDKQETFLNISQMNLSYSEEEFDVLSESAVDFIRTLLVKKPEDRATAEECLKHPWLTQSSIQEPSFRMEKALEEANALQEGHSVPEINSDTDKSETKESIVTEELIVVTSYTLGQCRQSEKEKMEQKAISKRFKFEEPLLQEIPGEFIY

[10] = target: Alpha-1A adrenergic receptor (Rattus norvegicus) (UniProt P43140); test: ALPHA1A/R Eurofins-Panlabs selectivity data (BI); conditions: Compound concentration 10.0 uM
Alpha-1A adrenergic receptor (Rattus norvegicus), sequence (P43140 whole entry, looked up): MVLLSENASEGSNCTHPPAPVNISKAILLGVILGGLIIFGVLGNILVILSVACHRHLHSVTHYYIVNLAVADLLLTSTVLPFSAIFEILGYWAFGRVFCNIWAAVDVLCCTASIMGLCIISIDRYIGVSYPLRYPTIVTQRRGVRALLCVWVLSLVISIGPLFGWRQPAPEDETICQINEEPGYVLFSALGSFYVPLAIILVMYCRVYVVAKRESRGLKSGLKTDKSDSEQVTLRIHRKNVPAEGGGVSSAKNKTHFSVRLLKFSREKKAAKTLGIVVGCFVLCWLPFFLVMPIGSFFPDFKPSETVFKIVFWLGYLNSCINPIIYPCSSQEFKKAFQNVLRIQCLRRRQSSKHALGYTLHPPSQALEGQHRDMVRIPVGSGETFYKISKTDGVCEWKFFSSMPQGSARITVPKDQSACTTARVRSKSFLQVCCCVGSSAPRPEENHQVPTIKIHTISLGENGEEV

Measured: residual activity

B2 bradykinin receptor (Homo sapiens), sequence (P30411 whole entry): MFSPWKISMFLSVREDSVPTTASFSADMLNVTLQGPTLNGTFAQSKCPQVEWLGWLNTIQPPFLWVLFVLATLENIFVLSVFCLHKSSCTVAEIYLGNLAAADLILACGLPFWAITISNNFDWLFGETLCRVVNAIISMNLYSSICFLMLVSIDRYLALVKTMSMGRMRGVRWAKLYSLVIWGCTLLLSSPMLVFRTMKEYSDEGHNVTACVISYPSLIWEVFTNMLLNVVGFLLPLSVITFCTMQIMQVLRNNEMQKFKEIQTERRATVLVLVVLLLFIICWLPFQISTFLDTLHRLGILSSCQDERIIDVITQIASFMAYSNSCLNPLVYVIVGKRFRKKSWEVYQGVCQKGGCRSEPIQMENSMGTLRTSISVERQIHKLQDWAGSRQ
Sodium-dependent noradrenaline transporter (Homo sapiens), sequence (P23975 whole entry): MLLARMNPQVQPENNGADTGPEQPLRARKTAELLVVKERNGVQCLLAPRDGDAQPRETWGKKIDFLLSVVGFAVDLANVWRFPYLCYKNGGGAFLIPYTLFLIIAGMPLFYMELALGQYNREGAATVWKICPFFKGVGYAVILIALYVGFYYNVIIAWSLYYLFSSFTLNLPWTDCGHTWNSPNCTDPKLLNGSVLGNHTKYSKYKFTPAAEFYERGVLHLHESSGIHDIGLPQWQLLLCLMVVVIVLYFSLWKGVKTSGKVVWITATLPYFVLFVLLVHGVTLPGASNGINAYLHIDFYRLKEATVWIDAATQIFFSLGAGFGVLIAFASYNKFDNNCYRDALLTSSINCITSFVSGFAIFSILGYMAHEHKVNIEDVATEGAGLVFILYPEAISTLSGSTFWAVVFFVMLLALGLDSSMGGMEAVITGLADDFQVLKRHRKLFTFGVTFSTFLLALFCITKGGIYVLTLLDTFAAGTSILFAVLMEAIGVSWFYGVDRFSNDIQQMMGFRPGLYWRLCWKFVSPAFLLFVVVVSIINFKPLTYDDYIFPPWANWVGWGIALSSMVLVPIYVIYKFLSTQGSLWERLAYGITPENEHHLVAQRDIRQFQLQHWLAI

CN(C)C(=O)Cn1cc(-c2nc([C@@](C)(c3ccc(-c4cnc(N)nc4)cc3)C3CC3)no2)cn1 [BI 665915]
inactive: [1] 102% | [2] 94% | [3] 95% | [4] 102% | [5] 96.5% | [6] 93% | [7] 94% | [8] 91% | [9] 96% | [10] 100%
